How the values were obtained:
Experiment in all cases: relative viability (nuclei count vs DMSO), 5 days (fraction); higher = more cells survive
[1] = system: NCI-H2087
Outline: (§1)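 A single step with final 0.05% Triton X-100, 1% formaldehyde and 1 ug/ml Hoechst fixed the cells and stained nuclei 5 days after treatment. Lung cancer cell lines in 1536-well plates had been treated by pin tool the day after seeding with one drug alone or a fixed anchor-drug dose plus five library-drug doses (not always all listed) in √10 steps, and nuclei were counted on 4× images. Relative viability is the ratio of nuclei in treated wells to nuclei in vehicle wells, taken as the median of duplicate plates.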

[2] = system: LU99A
Outline: as §1

[3] = system: NCI-H838
Outline: as §1

[4] = system: HCC-827
Outline: as §1

[5] = system: LCLC-103H
Outline: as §1

[6] = system: SK-MES-1
Outline: as §1

[7] = system: NCI-H1651
Outline: as §1

[8] = system: EPLC-272H
Outline: as §1

[9] = system: NCI-H1793
Outline: as §1

[10] = system: NCI-H1395
Outline: as §1

[11] = system: EMC-BAC-2
Outline: as §1

[12] = system: NCI-H1944
Outline: as §1

[13] = system: COR-L23
Outline: as §1

[14] = system: NCI-H2023
Outline: as §1

[15] = system: HCC-44
Outline: as §1

[16] = system: NCI-H1563
Outline: as §1

[17] = system: NCI-H2085
Outline: as §1

[18] = system: NCI-H2405
Outline: as §1

[19] = system: H3255
Outline: as §1

[20] = system: NCI-H520
Outline: as §1

[21] = system: NCI-H650
Outline: as §1

[22] = system: ChaGo-K-1
Outline: as §1

Structure (SMILES): O=c1cc(N2CCOCC2)oc2c(-c3cccc4c3sc3ccccc34)cccc12 + CS(=O)(=O)N1CCN(Cc2cc3nc(-c4cccc5[nH]ncc45)nc(N4CCOCC4)c3s2)CC1 [Pictilisib] (partner 1 µM)
- relative viability ([1]; first compound 0.01 µM): 0.745
- relative viability ([1]; first compound 0.03162 µM): 0.861
- relative viability ([1]; first compound 0.1 µM): 0.851
- relative viability ([1]; first compound 0.3162 µM): 0.783
- relative viability ([1]; first compound 1 µM): 1
- relative viability ([2]; first compound 0.01 µM): 0.384
- relative viability ([2]; first compound 0.03162 µM): 0.3
- relative viability ([2]; first compound 0.1 µM): 0.333
- relative viability ([2]; first compound 0.3162 µM): 0.367
- relative viability ([2]; first compound 1 µM): 0.343
- relative viability ([3]; first compound 0.01 µM): 0.427
- relative viability ([3]; first compound 0.03162 µM): 0.389
- relative viability ([3]; first compound 0.1 µM): 0.434
- relative viability ([3]; first compound 0.3162 µM): 0.472
- relative viability ([3]; first compound 1 µM): 0.388
- relative viability ([4]; first compound 0.01 µM): 1.04
- relative viability ([4]; first compound 0.03162 µM): 0.809
- relative viability ([4]; first compound 0.1 µM): 1.05
- relative viability ([4]; first compound 0.3162 µM): 1.01
- relative viability ([4]; first compound 1 µM): 0.997
- relative viability ([5]; first compound 0.01 µM): 0.64
- relative viability ([5]; first compound 0.03162 µM): 0.664
- relative viability ([5]; first compound 0.1 µM): 0.649
- relative viability ([5]; first compound 0.3162 µM): 0.627
- relative viability ([5]; first compound 1 µM): 0.577
- relative viability ([6]; first compound 0.01 µM): 0.327
- relative viability ([6]; first compound 0.03162 µM): 0.314
- relative viability ([6]; first compound 0.1 µM): 0.396
- relative viability ([6]; first compound 0.3162 µM): 0.31
- relative viability ([6]; first compound 1 µM): 0.362
- relative viability ([7]; first compound 0.01 µM): 0.451
- relative viability ([7]; first compound 0.03162 µM): 0.642
- relative viability ([7]; first compound 0.1 µM): 0.636
- relative viability ([7]; first compound 0.3162 µM): 0.615
- relative viability ([7]; first compound 1 µM): 0.56
- relative viability ([8]; first compound 0.01 µM): 0.108
- relative viability ([8]; first compound 0.03162 µM): 0.242
- relative viability ([8]; first compound 0.3162 µM): 0.374
- relative viability ([8]; first compound 1 µM): 0.31
- relative viability ([9]; first compound 0.01 µM): 0.289
- relative viability ([9]; first compound 0.03162 µM): 0.348
- relative viability ([9]; first compound 0.1 µM): 0.336
- relative viability ([9]; first compound 0.3162 µM): 0.335
- relative viability ([9]; first compound 1 µM): 0.35
- relative viability ([10]; first compound 0.01 µM): 0.587
- relative viability ([10]; first compound 0.03162 µM): 0.653
- relative viability ([10]; first compound 0.1 µM): 0.484
- relative viability ([10]; first compound 0.3162 µM): 0.623
- relative viability ([10]; first compound 1 µM): 0.627
- relative viability ([11]; first compound 0.01 µM): 0.372
- relative viability ([11]; first compound 0.03162 µM): 0.518
- relative viability ([11]; first compound 0.1 µM): 0.559
- relative viability ([11]; first compound 0.3162 µM): 0.574
- relative viability ([11]; first compound 1 µM): 0.517
- relative viability ([12]; first compound 0.01 µM): 0.349
- relative viability ([12]; first compound 0.03162 µM): 0.336
- relative viability ([12]; first compound 0.1 µM): 0.349
- relative viability ([12]; first compound 0.3162 µM): 0.348
- relative viability ([12]; first compound 1 µM): 0.35
- relative viability ([13]; first compound 0.01 µM): 0.765
- relative viability ([13]; first compound 0.03162 µM): 0.855
- relative viability ([13]; first compound 0.1 µM): 0.846
- relative viability ([13]; first compound 0.3162 µM): 0.757
- relative viability ([13]; first compound 1 µM): 0.778
- relative viability ([14]; first compound 0.01 µM): 0.306
- relative viability ([14]; first compound 0.03162 µM): 0.262
- relative viability ([14]; first compound 0.1 µM): 0.266
- relative viability ([14]; first compound 0.3162 µM): 0.275
- relative viability ([14]; first compound 1 µM): 0.245
- relative viability ([15]; first compound 0.01 µM): 0.638
- relative viability ([15]; first compound 0.03162 µM): 0.659
- relative viability ([15]; first compound 0.1 µM): 1.87
- relative viability ([15]; first compound 0.3162 µM): 0.543
- relative viability ([15]; first compound 1 µM): 0.549
- relative viability ([16]; first compound 0.01 µM): 0.626
- relative viability ([16]; first compound 0.03162 µM): 0.634
- relative viability ([16]; first compound 0.1 µM): 0.659
- relative viability ([16]; first compound 0.3162 µM): 0.57
- relative viability ([16]; first compound 1 µM): 0.559
- relative viability ([17]; first compound 0.01 µM): 0.469
- relative viability ([17]; first compound 0.03162 µM): 0.467
- relative viability ([17]; first compound 0.1 µM): 0.553
- relative viability ([17]; first compound 0.3162 µM): 0.464
- relative viability ([17]; first compound 1 µM): 0.405
- relative viability ([18]; first compound 0.01 µM): 0.397
- relative viability ([18]; first compound 0.03162 µM): 0.513
- relative viability ([18]; first compound 0.1 µM): 0.443
- relative viability ([18]; first compound 0.3162 µM): 0.533
- relative viability ([18]; first compound 1 µM): 0.443
- relative viability ([19]; first compound 0.01 µM): 0.5
- relative viability ([19]; first compound 0.03162 µM): 0.513
- relative viability ([19]; first compound 0.1 µM): 0.48
- relative viability ([19]; first compound 0.3162 µM): 0.45
- relative viability ([19]; first compound 1 µM): 0.416
- relative viability ([20]; first compound 0.01 µM): 0.304
- relative viability ([20]; first compound 0.03162 µM): 0.321
- relative viability ([20]; first compound 0.1 µM): 0.282
- relative viability ([20]; first compound 0.3162 µM): 0.305
- relative viability ([20]; first compound 1 µM): 0.312
- relative viability ([21]; first compound 0.01 µM): 0.907
- relative viability ([21]; first compound 0.03162 µM): 1
- relative viability ([21]; first compound 0.3162 µM): 0.896
- relative viability ([21]; first compound 1 µM): 1.04
- relative viability ([22]; first compound 0.01 µM): 0.648
- relative viability ([22]; first compound 0.03162 µM): 0.791
- relative viability ([22]; first compound 0.1 µM): 0.448
- relative viability ([22]; first compound 0.3162 µM): 0.901
- relative viability ([22]; first compound 1 µM): 0.663

Reference: the supplement of paper PMC10307832
